{"source": "patent US20160158377A1", "about": "“BCL-XL Inhibitory Compounds and Antibody Drug Conjugates Including the Same” (AbbVie Inc., priority 2014, published 2016)", "key": {"Bcl-xL": {"molecular_target": "Bcl-xL (Homo sapiens, UniProt Q07817)", "sequence (Q07817 whole entry)": "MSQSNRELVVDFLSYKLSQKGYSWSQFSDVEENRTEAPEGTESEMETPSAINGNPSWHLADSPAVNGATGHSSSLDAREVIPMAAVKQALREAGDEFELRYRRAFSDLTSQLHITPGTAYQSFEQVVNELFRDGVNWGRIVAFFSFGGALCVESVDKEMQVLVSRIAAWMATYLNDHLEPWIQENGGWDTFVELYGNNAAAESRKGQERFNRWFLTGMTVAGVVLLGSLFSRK", "assay": "TR-FRET Bcl-xL binding assay (competition with probe F-Bak)", "procedure": "For the assay, test compounds were serially diluted in DMSO starting at 50 μM (2× starting concentration; 10% DMSO) and 10 μL transferred into a 384-well plate. 10 μL of a protein/probe/antibody mix was then added to each well at final concentrations listed below:\nThe samples were then mixed on a shaker for 1 minute and incubated for an additional 2 hours at room temperature. For each assay plate, a probe/antibody and protein/antibody/probe mixture were included as a negative and a positive control, respectively. Fluorescence was measured on the Envision (Perkin Elmer) using a 340/35 nm excitation filter and 520/525 (F-Bak) and 495/510 nm (Tb-labeled anti-his antibody) emission filters. Dissociation constants (Ki) were determined using Wang's equation (Wang, 1995, FEBS Lett. 360:111-114). The TR-FRET assay can be performed in the presence of varying concentrations of human serum (HS) or fetal bovine serum (FBS). Compounds were tested both without HS and in the presence of 1% HS."}, "[1]": {"tested_on": "Molt-4 human acute lymphoblastic leukemia cells", "assay": "Molt-4 cell viability assay", "type": "cell-based", "conditions": "10% human serum, 48 hours, CellTiter-Glo, read-out: Molt-4 Viability EC50 (nM, 10% HS)", "procedure": "In one exemplary set of conditions, Molt-4 (ATCC, Manassas, Va.) human acute lymphoblastic leukemia cells were plated 12,500 cells per well in 384-well tissue culture plates (Corning, Corning, N.Y.) in a total volume of 25 μL tissue culture medium supplemented with 10% human serum (Sigma-Aldrich, St. Louis, Mo.) and treated with a 3-fold serial dilution of the compounds of interest from 10 μM to 0.0005 μM. Each concentration was tested in duplicate at least 3 separate times. The number of viable cells following 48 hours of compound treatment was determined using the CellTiter-Glo® Luminescent Cell Viability Assay according to the manufacturer's recommendations (Promega Corp., Madison, Wis.). Compounds were tested in the presence of 10% HS."}, "[2]": {"conditions": "in the presence of 1% human serum (HS), read-out: Bcl-xL Binding Ki (nM, 1% HS)"}, "[3]": {"conditions": "without human serum, read-out: Bcl-xL Binding Ki"}}, "note": "Read-outs that look alike come from different tables or passages of the source.", "data": [{"smiles": "CNCCOC12CC3(C)CC(C)(CC(Cn4ncc(-c5ccc(-c6ccc7c(c6)N(C(=O)Nc6nc8ccccc8s6)CCC7)nc5C(=O)O)c4C)(C3)C1)C2", "note": "[Compound W3.01, 6-[1-(1,3-benzothiazol-2-ylcarbamoyl)-1,2,3,4-tetrahydroquinolin-7-yl]-3-[1-({3,5-dimethyl-7-[2-(methylamino)ethoxy]tricyclo[3.3.1.1^3,7]dec-1-yl}methyl)-5-methyl-1H-pyrazol-4-yl]pyridine-2-carboxylic acid]", "values": [{"measurement": "Ki", "setting": "Bcl-xL; [2]", "result": 0.009, "unit": "nM"}, {"measurement": "Ki", "setting": "Bcl-xL; [3]", "result": "< 0.001", "unit": "nM"}, {"measurement": "EC50", "setting": "[1]", "result": 0.3, "unit": "nM"}]}, {"smiles": "CNCCOC12CC3(C)CC(C)(CC(Cn4ncc(-c5ccc(-c6ccc7c(c6)N(C(=O)Nc6nc8ccccc8s6)CCO7)nc5C(=O)O)c4C)(C3)C1)C2", "note": "[Compound W3.02]", "values": [{"measurement": "Ki", "setting": "Bcl-xL; [2]", "result": 0.047, "unit": "nM"}, {"measurement": "Ki", "setting": "Bcl-xL; [3]", "result": "< 0.001", "unit": "nM"}, {"measurement": "EC50", "setting": "[1]", "result": 0.5, "unit": "nM"}]}, {"smiles": "CNCCOC12CC3(C)CC(C)(CC(Cn4ncc(-c5ccc(-c6ccc7c(c6)N(C(=O)Nc6nc8ccccc8s6)CCN7C)nc5C(=O)O)c4C)(C3)C1)C2", "note": "[Compound W3.03, 6-[4-(1,3-benzothiazol-2-ylcarbamoyl)-1-methyl-1,2,3,4-tetrahydroquinoxalin-6-yl]-3-[1-({3,5-dimethyl-7-[2-(methylamino)ethoxy]tricyclo[3.3.1.1^3,7]dec-1-yl}methyl)-5-methyl-1H-pyrazol-4-yl]pyridine-2-carboxylic acid]", "values": [{"measurement": "Ki", "setting": "Bcl-xL; [2]", "result": 0.019, "unit": "nM"}, {"measurement": "Ki", "setting": "Bcl-xL; [3]", "result": "< 0.001", "unit": "nM"}, {"measurement": "EC50", "setting": "[1]", "result": 1.4, "unit": "nM"}]}, {"smiles": "Cc1c(-c2ccc(N3CCn4cnc(C(=O)Nc5nc6ccccc6s5)c4C3)nc2C(=O)O)cnn1CC12CC3(C)CC(C)(C1)CC(OCCN)(C3)C2", "note": "[Compound W3.04, 3-(1-{[3-(2-aminoethoxy)-5,7-dimethyltricyclo[3.3.1.1^3,7]dec-1-yl]methyl}-5-methyl-1H-pyrazol-4-yl)-6-[1-(1,3-benzothiazol-2-ylcarbamoyl)-5,6-dihydroimidazo[1,5-a]pyrazin-7(8H)-yl]pyridine-2-carboxylic acid]", "values": [{"measurement": "Ki", "setting": "Bcl-xL; [2]", "result": 0.049, "unit": "nM"}, {"measurement": "Ki", "setting": "Bcl-xL; [3]", "result": "< 0.001", "unit": "nM"}, {"measurement": "EC50", "setting": "[1]", "result": 58.9, "unit": "nM"}]}, {"smiles": "CNCCOC12CC3(C)CC(C)(CC(Cn4ncc(-c5ccc(-c6cnc7cccc(C(=O)Nc8nc9ccccc9s8)c7c6)nc5C(=O)O)c4C)(C3)C1)C2", "note": "[Compound W3.10, 6-[5-(1,3-benzothiazol-2-ylcarbamoyl)quinolin-3-yl]-3-[1-({3,5-dimethyl-7-[2-(methylamino)ethoxy]tricyclo[3.3.1.1^3,7]dec-1-yl}methyl)-5-methyl-1H-pyrazol-4-yl]pyridine-2-carboxylic acid]", "values": [{"measurement": "Ki", "setting": "Bcl-xL; [2]", "result": 0.0259, "unit": "nM"}, {"measurement": "Ki", "setting": "Bcl-xL; [3]", "result": "< 0.001", "unit": "nM"}]}, {"smiles": "COCCOC12CC3(C)CC(C)(CC(Cn4ncc(-c5ccc(N6CCc7cc(N8CCC(N)C8)cc(C(=O)Nc8nc9ccccc9s8)c7C6)nc5C(=O)O)c4C)(C3)C1)C2", "note": "(stereo not drawn) [Compound W3.17, 6-[6-(3-aminopyrrolidin-1-yl)-8-(1,3-benzothiazol-2-ylcarbamoyl)-3,4-dihydroisoquinolin-2(1H)-yl]-3-(1-{[3-(2-methoxyethoxy)-5,7-dimethyltricyclo[3.3.1.1^3,7]dec-1-yl]methyl}-5-methyl-1H-pyrazol-4-yl)pyridine-2-carboxylic acid]", "values": [{"measurement": "Ki", "setting": "Bcl-xL; [2]", "result": 2.3, "unit": "nM"}, {"measurement": "Ki", "setting": "Bcl-xL; [3]", "result": 0.49, "unit": "nM"}]}, {"smiles": "CNCCN(C)c1cc2c(c(C(=O)Nc3nc4ccccc4s3)c1)CN(c1ccc(-c3cnn(CC45CC6(C)CC(C)(C4)CC(OCCOC)(C6)C5)c3C)c(C(=O)O)n1)CC2", "note": "[Compound W3.21, 6-[8-(1,3-benzothiazol-2-ylcarbamoyl)-6-{methyl[2-(methylamino)ethyl]amino}-3,4-dihydroisoquinolin-2(1H)-yl]-3-(1-{[3-(2-methoxyethoxy)-5,7-dimethyltricyclo[3.3.1.1^3,7]dec-1-yl]methyl}-5-methyl-1H-pyrazol-4-yl)pyridine-2-carboxylic acid]", "values": [{"measurement": "Ki", "setting": "Bcl-xL; [2]", "result": 0.14, "unit": "nM"}, {"measurement": "Ki", "setting": "Bcl-xL; [3]", "result": 0.014, "unit": "nM"}]}, {"smiles": "CNCCOC12CC3(C)CC(C)(CC(Cn4ncc(-c5ccc(N6CCc7cc(OC)cc(C(=O)Nc8nc9ccccc9s8)c7C6)nc5C(=O)O)c4C)(C3)C1)C2", "note": "[Compound W3.22, 6-[8-(1,3-benzothiazol-2-ylcarbamoyl)-6-methoxy-3,4-dihydroisoquinolin-2(1H)-yl]-3-[1-({3,5-dimethyl-7-[2-(methylamino)ethoxy]tricyclo[3.3.1.1^3,7]dec-1-yl}methyl)-5-methyl-1H-pyrazol-4-yl]pyridine-2-carboxylic acid]", "values": [{"measurement": "Ki", "setting": "Bcl-xL; [2]", "result": 0.108, "unit": "nM"}, {"measurement": "Ki", "setting": "Bcl-xL; [3]", "result": "< 0.01", "unit": "nM"}]}, {"smiles": "Cc1c(-c2ccc(-c3ccc4nccc(C(=O)Nc5nc6ccccc6s5)c4c3)nc2C(=O)O)cnn1CC12CC3(C)CC(C)(C1)CC(OCCN)(C3)C2", "note": "[Compound W3.23, 3-(1-{[3-(2-aminoethoxy)-5,7-dimethyltricyclo[3.3.1.1^3,7]dec-1-yl]methyl}-5-methyl-1H-pyrazol-4-yl)-6-[4-(1,3-benzothiazol-2-ylcarbamoyl)quinolin-6-yl]pyridine-2-carboxylic acid]", "values": [{"measurement": "Ki", "setting": "Bcl-xL; [2]", "result": 1.1, "unit": "nM"}, {"measurement": "Ki", "setting": "Bcl-xL; [3]", "result": 0.021, "unit": "nM"}]}, {"smiles": "Cc1c(-c2ccc(N3CCc4cccc(C(=O)Nc5nc6ccccc6s5)c4C3)nc2C(=O)O)cnn1CC12CC3(C)CC(C)(C1)CC(OCCNCCS(=O)(=O)N(C)C)(C3)C2", "note": "[Compound W3.36, 6-(8-(benzo[d]thiazol-2-ylcarbamoyl)-3,4-dihydroisoquinolin-2(1H)-yl)-3-(1-((3-(2-((2-(N,N-dimethylsulfamoyl)ethyl)amino)ethoxy)-5,7-dimethyladamantan-1-yl)methyl)-5-methyl-1H-pyrazol-4-yl)picolinic acid]", "values": [{"measurement": "EC50", "setting": "[1]", "result": 6.9, "unit": "nM"}]}, {"smiles": "Cc1c(-c2ccc(N3CCc4cccc(C(=O)Nc5nc6ccccc6s5)c4C3)nc2C(=O)O)cnn1CC12CC3(C)CC(C)(C1)CC(OCCNCCC(=O)N(C)C)(C3)C2", "note": "[Compound W3.38, 6-[8-(1,3-benzothiazol-2-ylcarbamoyl)-3,4-dihydroisoquinolin-2(1H)-yl]-3-(1-{[3-(2-{[3-(dimethylamino)-3-oxopropyl]amino}ethoxy)-5,7-dimethyltricyclo[3.3.1.1^3,7]dec-1-yl]methyl}-5-methyl-1H-pyrazol-4-yl)pyridine-2-carboxylic acid]", "values": [{"measurement": "EC50", "setting": "[1]", "result": 10.7, "unit": "nM"}]}, {"smiles": "Cc1c(-c2ccc(N3CCc4cccc(C(=O)Nc5nc6ccccc6s5)c4C3)nc2C(=O)O)cnn1CC12CC3(C)CC(C)(C1)CC(NC(=O)CN)(C3)C2", "note": "[Compound W3.40, 3-(1-{[3-(2-aminoacetamido)-5,7-dimethyltricyclo[3.3.1.1^3,7]decan-1-yl]methyl}-5-methyl-1H-pyrazol-4-yl)-6-{8-[(1,3-benzothiazol-2-yl)carbamoyl]-3,4-dihydroisoquinolin-2(1H)-yl}pyridine-2-carboxylic acid]", "values": [{"measurement": "Ki", "setting": "Bcl-xL; [2]", "result": 1.1, "unit": "nM"}, {"measurement": "Ki", "setting": "Bcl-xL; [3]", "result": 0.024, "unit": "nM"}]}, {"smiles": "Cc1c(-c2ccc(N3CCc4cccc(C(=O)Nc5nc6ccccc6s5)c4C3)nc2C(=O)O)cnn1CC12CC3(C)CC(C)(CC(CCCN)(C3)C1)C2", "note": "[Compound W3.42, 3-(1-{[3-(3-aminopropyl)-5,7-dimethyltricyclo[3.3.1.1^3,7]dec-1-yl]methyl}-5-methyl-1H-pyrazol-4-yl)-6-[8-(1,3-benzothiazol-2-ylcarbamoyl)-3,4-dihydroisoquinolin-2(1H)-yl]pyridine-2-carboxylic acid]", "values": [{"measurement": "Ki", "setting": "Bcl-xL; [2]", "result": 4.36, "unit": "nM"}, {"measurement": "Ki", "setting": "Bcl-xL; [3]", "result": 0.15, "unit": "nM"}]}, {"smiles": "Cc1c(-c2ccc(-c3cnc4cccc(C(=O)Nc5nc6ccccc6s5)c4c3)nc2C(=O)O)cnn1CC12CC3(C)CC(C)(C1)CC(OCCN)(C3)C2", "note": "[Compound W3.43, 3-(1-{[3-(2-aminoethoxy)-5,7-dimethyltricyclo[3.3.1.1^3,7]decan-1-yl]methyl}-5-methyl-1H-pyrazol-4-yl)-6-{5-[(1,3-benzothiazol-2-yl)carbamoyl]quinolin-3-yl}pyridine-2-carboxylic acid]", "values": [{"measurement": "Ki", "setting": "Bcl-xL; [2]", "result": 0.07, "unit": "nM"}, {"measurement": "Ki", "setting": "Bcl-xL; [3]", "result": "< 0.01", "unit": "nM"}]}]}
